The text below walks through data of patent publication US7947684B2, “1-aroyl-piperidinyl benzamidines” (Aventis Pharmaceuticals Inc., priority 2000, dated 2011).

Assay [1] concerns the target Factor Xa (Homo sapiens, UniProt P00742). Kind of assay: Enzyme assay, purified factor Xa, peptide-p-nitroanilide substrate. Type of assay: biochemical. To be noted: apparent Ki from IC50 by Cheng-Prusoff, room temperature, 1 nM enzyme. Here is the method: (§1) All enzyme assays are carried out at room temperature in 96-well microtiter plates using a final enzyme concentration of 1 nM. The concentrations of factor Xa and thrombin are determined by active site titration and the concentrations of all other enzymes are based on the protein concentration supplied by the manufacturer. Compounds according to the invention are dissolved in DMSO, diluted with their respective buffers and assayed at a maximal final DMSO concentration of 1.25%. Compound dilutions are added to wells containing buffer and enzyme and pre-equilibrated for between 5 and 30 minutes. The enzyme reactions are initiated by the addition of substrate and the color developed from the hydrolysis of the peptide-p-nitroanilide substrates is monitored continuously for 5 minutes at 405 nm on a Vmax microplate reader (Molecular Devices). Under these conditions, less than 10% of the substrate is utilized in all assays. […] The apparent Ki values are then determined according to the Cheng-Prusoff equation (IC50=Ki[1+[S]/Km]) assuming competitive inhibition kinetics.

Assay [2] deals with human lung tryptase or recombinant human β tryptase. The assay is described as follows: Tryptase inhibition activity, S2366 substrate. The class given is biochemical. Conditions: room temperature, 0.5 mM substrate. The procedure:
as §1
Tryptase inhibition activity is confirmed using either isolated human lung tryptase or recombinant human β tryptase expressed in yeast cells. Essentially equivalent results are obtained using isolated native enzyme or the expressed enzyme. […]

Each structure is given as a SMILES string. pKi: −log10 of the molar value. Where a name gives a salt, the structure may show the parent alone.

Sequence of Factor Xa (P00742 235-488 limits assumed): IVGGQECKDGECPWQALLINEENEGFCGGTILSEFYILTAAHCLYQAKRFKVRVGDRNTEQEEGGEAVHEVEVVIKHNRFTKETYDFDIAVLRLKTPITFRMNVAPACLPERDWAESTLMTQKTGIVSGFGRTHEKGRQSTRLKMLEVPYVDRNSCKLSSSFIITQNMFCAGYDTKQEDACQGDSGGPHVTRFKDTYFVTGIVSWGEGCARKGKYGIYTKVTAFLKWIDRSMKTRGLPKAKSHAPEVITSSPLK
Sequence of Factor Xa (P00742 41-179 partner limits assumed): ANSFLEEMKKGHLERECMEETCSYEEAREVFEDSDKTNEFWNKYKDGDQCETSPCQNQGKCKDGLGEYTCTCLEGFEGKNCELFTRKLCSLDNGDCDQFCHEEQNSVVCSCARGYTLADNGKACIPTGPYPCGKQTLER

Usually pKi stands for −log10 of the Ki, conventionally taken in molar units. For `NC(=O)c1cccc(-c2ccc(C(=O)N3CCC(c4ccc5ccnc(N)c5c4)CC3)cc2)c1` [Example 35, 4′-[4-(1-Aminoisoquinolin-7-yl)piperidine-1-carbonyl]biphenyl-3-carboxylic acid amide trifluoroacetate], the pKi in assay [1] is 6.24.

Turning to `N=C(N)c1cccc(C2=CCN(C(=O)c3cncc(C#Cc4ccccc4)c3)CC2)c1` [Example 47, 3-[1-(5-Phenylethynyl-pyridine-3-carbonyl)-1,2,3,6-tetrahydropyridin-4-yl]-benzamidine hydrochloride], in assay [2], the pKi is 6.74.

`Nc1nccc2ccc(C3=CCN(C(=O)c4ccc(-c5ccc(=O)[nH]c5)cc4)CC3)cc12` [Example 39, 5-{4-[4-(1-Aminoisoquinolin-7-yl)-3,6-dihydro-2H-pyridine-1-carbonyl]phenyl}-1H-pyridin-2-one trifluoroacetate]: the negative-log Ki (pKi) in assay [1] is 6.85.

Consider `N=C(N)c1cccc(C2CCN(C(=O)c3ccc(-c4ccccn4)cc3)CC2)c1` [Example 25, 3-[1-(4-Pyridin-2-ylbenzoyl)-piperidin-4-yl]benzamidine ditrifluoroacetate], for which the pKi in assay [1] was 8.05.

In the case of `N=C(N)c1cccc(C2=CCN(C(=O)c3ccc(-c4cccnc4)cc3)CC2)c1` [Example 8, 3-[1-(4-Pyridin-3-yl-benzoyl)-1,2,3,6-tetrahydropyridin-4-yl]benzamidine ditrifluoroacetate], the pKi in assay [1] was 8.30.

Turning to `Nc1nccc2[nH]c(C3CCN(C(=O)c4ccc(-c5ccc(=O)[nH]c5)cc4)CC3)cc12` [Example 44, 5-{4-[4-(4-Amino-1H-pyrrolo[3,2-c]pyridin-2-yl)piperidine-1-carbonyl]phenyl}-1H-pyridin-2-one trifluoroacetate], the pKi in assay [1] was 6.00.

For `N=C(N)c1cccc(C2=CCN(C(=O)c3ccc(-c4ccc(Cl)s4)cc3)CC2)c1` [Example 11, 3-{1-[4-(5-Chlorothiophen-2-yl)-benzoyl]-1,2,3,6-tetrahydropyridin-4-yl}benzamidine trifluoroacetate], the pKi in assay [1] was 6.16.

`N=C(N)c1cccc(C2=CCN(C(=O)c3ccc(-c4ncccn4)cc3)CC2)c1` [Example 16, 3-[1-(4-Pyrimidin-2-ylbenzoyl)-1,2,3,6-tetrahydropyridin-4-yl]-benzamidine ditrifluoroacetate]: the pKi in assay [1] was 7.20.

Take `N=C(N)c1cccc(N2CCN(C(=O)c3cncc(CCc4ccccc4)c3)CC2)c1` [Example 49, 3-[4-(5-Phenylethyl-pyridine-3-carbonyl)-piperazin-1-yl]-benzamidine di-hydrochloride]: in assay [2], the pKi is 5.97.

Regarding `N=C(N)c1cccc(C2=CCN(C(=O)c3ccc(-c4ccc(Br)o4)cc3)CC2)c1` [Example 10, 3-{1-[4-(5-Bromofuran-2-yl)-benzoyl]-1,2,3,6-tetrahydropyridin-4-yl}benzamidine trifluoroacetate], the pKi in assay [1] was 7.47.
